Source: patent publication US20110054033A1, “METHODS OF USING ABSCISIC ACID FOR AMELIORATING HYPERTENSION AND VASCULAR INFLAMMATION” (Virginia Tech Intellectual Properties, Inc., priority 2009, published 2011)

What was measured:
[1] = test system: vascular smooth muscle cells and primary human monocytes; conditions: stimulated in culture for 6 hours, Magnone et al., 2009; cited from earlier work
[2] = test system: human aorta endothelial cells (HAECs); experiment: Intracellular cAMP in human aorta endothelial cells; type: cell-based; conditions: tested 0.01-10 μM
Procedure: FIG. 7 are graphs showing effect of ABA on (A) cAMP; (B) NO; and (C) eNOS. (A) Confluent human aortic endothelial cell (HAEC) were serum-starved using HBSS buffer for 30 min and then stimulated with various concentrations of ABA (0, 0.01, 0.1, 1, 10 μM) or Forskolin (1 μM) for […]. After removing supernatant, cells were lysated with 0.1 M HCL for 20 minutes to measure non-acetylated cAMP. (B) Confluent HAEC were serum-starved using HBSS buffer for 30 minutes and then stimulated with various concentrations of ABA (0, 0.001, 0.01, 0.1, 1, 10 μM) for 15 minutes to measure NO. Results (pmol/ml) from four independent experiments are depicted. […]
Confluent human aorta endothelial cells (HAECs) at passage 3 maintained with EGM-2 media (Clonetics, Walkerville, Md.) were adapted to Hank's buffered salt solution buffer for 30 min and then stimulated with ABA or forskolin (1 μM) for 10 min. For intracellular assessment of cAMP, the cells were harvested into 0.1 M HCL and the lysates were obtained by sonication and centrifugation. cAMP the lysates were determined by using an EIA kit (Assay Designs, Ann Arbor, Mich.) and results were obtained from four independent experiments. Nitric oxide levels in the cell culture supernatants were determined with the Nitric Oxide Assay Kit according to manufacturer's instructions (Assay Designs). […]

15-lipoxygenase (15-LOX) = experiment: Aortic gene expression by real-time RT-PCR: 15-LOX; type: in vivo, mice; conditions: day 84, ratio to β-actin
Procedure: FIG. 4 are photos and graphs showing aortas collected on day 84 of dietary intervention. Representative photomicrographs (100×) of aortic root specimens from (A) control and (B) ABA-fed mice. (C) Analysis of lumenal areas and (D) tunica media areas were performed with aortic cross-sections using Image Pro Plus software. (E) Aortic thickness was analyzed as a ratio of the intima to the media. Gene expression in the aorta of (F) endothelial nitric oxide synthase (eNOS) and (G) 15-lipoxygenase (15-LOX) were measured as a ratio to the house-keeping gene β-actin. Data were analyzed as a completely randomized design.
Total RNA was isolated from aortas using the RNA isolation Minikit (Qiagen) according to the manufacturer's instructions. Total RNA (1 μg) was used to generate a complementary DNA (cDNA) template using the iScript cDNA Synthesis Kit (Bio-Rad, Hercules, Calif.). […] Each gene amplicon was purified with the MiniElute PCR Purification Kit (Qiagen) and quantitated on an agarose gel by using a DNA mass ladder (Promega). […]
(§1) Complementary DNA (cDNA) concentrations for genes of interest were examined by real-time quantitative PCR using an iCycler IQ System and the iQ SYBR green supermix (Bio-Rad). […] Results are presented as a starting quantity of target cDNA (picograms) per microgram of total RNA. […]

[3] = test system: peroxisome proliferator-activated receptor γ (PPAR γ); experiment: Aortic gene expression by real-time RT-PCR: PPAR γ and responsive genes; type: in vivo, mice; conditions: day 84
Procedure: FIG. 6 are graphs showing that ABA decreases immune cell infiltration in aortas of ApoE−/− mice and reduces pro-inflammatory gene expression. ApoE −/− mice were fed high fat diets created with or without 100 mg/kg diet racemic abscisic acid (ABA). (A) Infiltration of F4/80^+CD11b^+ macrophages and CD4^+ T-cells into the aorta were assessed with flow cytometry. Gene expression in the aorta of pro-inflammatory markers (B) vascular cell adhesion molecule 1 (VCAM-1), (C) monocyte chemoattractant protein 1 (MCP-1), (D) E-selectin, (F) peroxisome proliferator-activated receptor γ (PPAR γ), and (G) CD36 were measured as a ratio to the housekeeping gene β-actin. (H) MCP-1 protein concentrations (pg/mL) were measured by ELISA. Data were analyzed as a completely randomized design.
Total RNA was isolated from aortas using the RNA isolation Minikit (Qiagen) according to the manufacturer's instructions. […] Each gene amplicon was purified with the MiniElute PCR Purification Kit (Qiagen) and quantitated on an agarose gel by using a DNA mass ladder (Promega). […]
as §1

CC1=CC(=O)CC(C)(C)C1(O)/C=C/C(C)=C\C(=O)O (racemic) [ABA, abscisic acid]
MCP-1 [1]: increases
MMP-9 [1]: increases
Dose inducing maximal effect on intracellular cAMP [2]: 1 µM
Lowest dose significantly increasing intracellular cAMP concentrations [2]: 0.1 µM
Aortic expression of 15-lipoxygenase mRNA vs control (15-lipoxygenase (15-LOX)): significantly elevated
Expression of PPAR γ or its responsive genes in the aorta vs control [3]: no differences
